These results are taken from patent US20220260557A1, “METHODS FOR DEPLETION AND ENRICHMENT” (priority 2018, published 2022).

One data set in a line: clinical. To be noted: human, in vivo, serum biotin level, LC-MS/MS.
Data set [1] is described as follows: Serum biotin levels after 20 mg biotin ingestion, free biotin ELISA. To be noted: per volunteer. On the procedure:
Baseline serum samples were obtained from 5 apparently healthy adult volunteers (4 male, 1 female) by antecubital venous blood draw in BD brand Vacutainer™ 10 mL red top tubes. […] Blood was allowed to clot for 1 hour at RT and centrifuged at 2,000 rpm for 15 min in a Beckman Allegra 6R tabletop centrifuge. For each time point, serum samples from each volunteer was pooled, mixed for 15 min at RT, aliquoted into 1.2 mL aliquots in 2 mL cryo-vials, and frozen at −80° C.
Samples above the kit's measuring range were diluted with the kit's sample dilution buffer.
In general terms: ELISA stands for enzyme-linked immunosorbent assay.

Where “and” joins values, the source holds several entries; their conditions need not be identical. Equal values may be shown once.

`O=C(O)CCCC[C@@H]1SC[C@@H]2NC(=O)N[C@@H]21` [Biotin]: the concentration at 6 h in “clinical” (20 mg, all 5 volunteers) is 17 to 35 ng/mL; in “clinical” (200 mg, 200 mg dose (so in the source)), 95 to 347 ng/mL; in data set [1] (both, human, in vivo, 20 mg, Biotin Concentration 6-hr, 6 hr after 20 mg biotin ingestion) it was 107 ng/mL. Further, the concentration at 8 h was in the range of 16 to 28 ng/mL in the data set “clinical” (20 mg, 8 hours, 4 out of 5 volunteers >15 ng/mL) and 60 to 107 ng/mL in data set [1] (both, human, in vivo, 20 mg, Biotin Concentration 8-hr, 8 hr after 20 mg biotin ingestion). Further, the “Biotin Concentration 1-hr” value in data set [1] (1 hr after 20 mg biotin ingestion) was found to be 440 ng/mL. Also, in data set [1] (3 hr after 20 mg biotin ingestion), the “Biotin Concentration 3-hr” value was 221 ng/mL and 289 ng/mL and 184 ng/mL and 113 ng/mL and 183 ng/mL. For the same molecule, the “Biotin Concentration 6-hr” value in data set [1] (6 hr after 20 mg biotin ingestion) is 60 ng/mL and 65 ng/mL and 76 ng/mL. The “Biotin Concentration 8-hr” value in data set [1] (8 hr after 20 mg biotin ingestion) is 48 ng/mL and 64 ng/mL and 65 ng/mL. Besides, the “Biotin Concentration 24-hr” value in data set [1] (24 hr after 20 mg biotin ingestion) is 29 ng/mL and 26 ng/mL and 32 ng/mL and 24 ng/mL. Moreover, the “Biotin Concentration 0-hr” value in data set [1] (baseline before 20 mg biotin ingestion) was 1.1 ng/mL and 0.1 ng/mL and 0.3 ng/mL and 0.4 ng/mL (2×). Moreover, the concentration at 1 h in data set [1] (both, human, in vivo, 20 mg, Biotin Concentration 1-hr, 1 hr after 20 mg biotin ingestion) amounted to 531 ng/mL. In addition, the concentration at 24 h in data set [1] (both, human, in vivo, 20 mg, Biotin Concentration 24-hr, 24 hr after 20 mg biotin ingestion) is 24 to 32 ng/mL.
